Where “and” joins values, the source holds several entries; their conditions need not be identical. Equal values may be shown once. Toxic doses and inconclusive results are not listed. No stated cut-off is given here; in the data, active means T/C of 150% or more; inactive means T/C below 125%.
System: L1210 leukemia ip in BDF1 mice, survival T/C
Test: NCI In Vivo Anticancer Drug Screen. Data for tumor model L1210 Leukemia (intraperitoneal) in B6D2F1 (BDF1) mice
Settings: endpoint: mean survival time, higher = longer survival
Procedure, shortened: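 Tumor was transplanted into mice, which were then dosed with test compound or vehicle alone. Survival was recorded for each group, and the treated figure was expressed relative to the control figure.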

[1] = dose: 25.0 mg/kg/injection, schedule: Q01DX009 (ip), vehicle: saline with Tween-80
[2] = dose: 50.0 mg/kg/injection, schedule: Q01DX009 (ip), vehicle: saline
[3] = dose: 100.0 mg/kg/injection, schedule: Q01DX001 (ip), vehicle: Klucel (hydroxypropylcellulose) (HPC)
[4] = dose: 200.0 mg/kg/injection, schedule: Q01DX001 (ip), vehicle: Klucel (hydroxypropylcellulose) (HPC)
[5] = dose: 100.0 mg/kg/injection, schedule: Q01DX009 (ip), vehicle: saline
[6] = dose: 100.0 mg/kg/injection, schedule: Q04DX003 (ip), vehicle: saline
[7] = dose: 200.0 mg/kg/injection, schedule: Q01DX009 (ip), vehicle: saline
[8] = dose: 200.0 mg/kg/injection, schedule: Q04DX003 (ip), vehicle: saline
[9] = dose: 400.0 mg/kg/injection, schedule: Q01DX009 (ip), vehicle: saline
[10] = dose: 400.0 mg/kg/injection, schedule: Q04DX003 (ip), vehicle: saline
[11] = dose: 100.0 mg/kg/injection, schedule: Q04DX003 (ip), vehicle: saline with Tween-80
[12] = dose: 200.0 mg/kg/injection, schedule: Q04DX003 (ip), vehicle: saline with Tween-80
[13] = dose: 400.0 mg/kg/injection, schedule: Q04DX003 (ip), vehicle: saline with Tween-80
[14] = dose: 25.0 mg/kg/injection, schedule: Q04DX003 (ip), vehicle: saline
[15] = dose: 50.0 mg/kg/injection, schedule: Q04DX003 (ip), vehicle: saline
[16] = dose: 100.0 mg/kg/injection, schedule: Q01DX001 (ip), vehicle: saline
[17] = dose: 200.0 mg/kg/injection, schedule: Q01DX001 (ip), vehicle: saline
[18] = dose: 400.0 mg/kg/injection, schedule: Q01DX001 (ip), vehicle: saline

Measured: T/C

Cc1nonc1C(=O)N(C)C
inactive: dose: 25.0 mg/kg/injection, schedule: Q04DX002 (ip), vehicle: saline 98 % of control | dose: 50.0 mg/kg/injection, schedule: Q04DX002 (ip), vehicle: saline 102 % of control | dose: 100.0 mg/kg/injection, schedule: Q04DX002 (ip), vehicle: saline 102 % of control

O=C(/C=C/c1ccc(Cl)cc1)CCN1CCC2CCC(C2)C1 (stereo unspecified)
inactive: dose: 50.0 mg/kg/injection, schedule: Q01DX001 (ip), vehicle: carboxymethylcellulose (CMC) 92 % of control | dose: 100.0 mg/kg/injection, schedule: Q01DX001 (ip), vehicle: carboxymethylcellulose (CMC) 95 % of control

COc1ccc2c(c1OC(C)=O)-c1cc(O)cc3c1C(C2)N(C(=O)CN(CCO)CCO)CC3 (stereo unspecified)
inactive: dose: 25.0 mg/kg/injection, schedule: Q04DX003 (ip), vehicle: DMSO 104 % of control | dose: 50.0 mg/kg/injection, schedule: Q04DX003 (ip), vehicle: DMSO 93 % of control | dose: 100.0 mg/kg/injection, schedule: Q04DX003 (ip), vehicle: DMSO 89 % of control | dose: 200.0 mg/kg/injection, schedule: Q04DX003 (ip), vehicle: DMSO 104 % of control | dose: 400.0 mg/kg/injection, schedule: Q04DX003 (ip), vehicle: DMSO 97 % of control

Cc1ccc(/C=C2/C=C(c3ccccc3)OC2=O)cc1
inactive: dose: 50.0 mg/kg/injection, schedule: Q01DX009 (ip), vehicle: alcohol 87 % of control | dose: 100.0 mg/kg/injection, schedule: Q01DX009 (ip), vehicle: alcohol 87 % of control | dose: 100.0 mg/kg/injection, schedule: Q04DX003 (ip), vehicle: alcohol 92 % of control | dose: 200.0 mg/kg/injection, schedule: Q01DX009 (ip), vehicle: alcohol 88 % of control | dose: 200.0 mg/kg/injection, schedule: Q04DX003 (ip), vehicle: alcohol 95 % of control

Cc1cc(CN(C)C)cc(C(C)C)c1O
inactive: dose: 12.5 mg/kg/injection, schedule: Q01DX009 (ip), vehicle: saline with Tween-80 96 % of control | [1] 97 % of control

CCC(CC)NCC(C)(C)O
inactive: dose: 75.0 mg/kg/injection, schedule: Q01DX001 (ip), vehicle: acid diluted with saline 115 % of control | dose: 150.0 mg/kg/injection, schedule: Q01DX001 (ip), vehicle: acid diluted with saline 110 % of control

N=C(N)c1ccc(OCCCCCCOc2ccc(C(=N)N)cc2I)cc1
inactive: dose: 6.25 mg/kg/injection, schedule: Q01DX Z (oral), vehicle: saline 103 % of control | dose: 12.5 mg/kg/injection, schedule: Q01DX Z (oral), vehicle: saline 103 % of control | dose: 25.0 mg/kg/injection, schedule: Q01DX Z (oral), vehicle: saline 97 % of control | dose: 50.0 mg/kg/injection, schedule: Q01DX Z (oral), vehicle: saline 101 % of control | dose: 100.0 mg/kg/injection, schedule: Q01DX Z (oral), vehicle: saline 100 % of control | dose: 200.0 mg/kg/injection, schedule: Q01DX Z (oral), vehicle: saline 100 % of control

CCN(CC)CCOC(=O)c1ccc(N=C=S)cc1
inactive: dose: 12.5 mg/kg/injection, schedule: Q01DX009 (ip), vehicle: saline 102 % of control | dose: 25.0 mg/kg/injection, schedule: Q01DX009 (ip), vehicle: saline 100 % of control | [2] 96 % of control

OC1CC2CCC(C1)S2 (stereo unspecified)
inactive: dose: 50.0 mg/kg/injection, schedule: Q01DX001 (ip), vehicle: Klucel (hydroxypropylcellulose) (HPC) 100 % of control | [3] 105 % of control | [4] 96 % of control

COC(=O)c1cc([N+](=O)[O-])ccc1Cl
inactive: [5] 87 % of control | [6] 98 % of control | [7] 95 % of control | [8] 97 % of control | [9] 101 % of control | [10] 95 % of control

c1ccc([Si]2(c3ccccc3)c3ccccc3-c3ccccc32)cc1
inactive: [11] 94 % of control | [12] 87 % of control | [13] 87 % of control

OCC1OC(OC2C(CO)OCC(O)C2O)C(O)C(O)C1O (stereo unspecified)
inactive: dose: 100.0 mg/kg/injection, schedule: Q04DX002 (ip), vehicle: saline with Tween-80 100 % of control | dose: 200.0 mg/kg/injection, schedule: Q04DX002 (ip), vehicle: saline with Tween-80 100 % of control | dose: 400.0 mg/kg/injection, schedule: Q04DX002 (ip), vehicle: saline with Tween-80 88 % of control

CCN(CC)CCOc1cc(C)cc2ccccc12
inactive: dose: 12.5 mg/kg/injection, schedule: Q04DX003 (ip), vehicle: saline 87 % of control | [14] 98 % of control | [15] 101 % of control | [6] 104 % of control

S=C(SSC(=S)N1CCOCC1)N1CCOCC1
inactive: [3] 88 % of control | [6] 93 % of control | [4] 101 % of control | [8] 101 % of control

C=CC(C)(O)CCC1C(=C)CCC2C(C)(C)CCCC12C (stereo unspecified)
inactive: dose: 100.0 mg/kg/injection, schedule: Q01DX009 (ip), vehicle: Klucel (hydroxypropylcellulose) (HPC) 100 % of control | dose: 200.0 mg/kg/injection, schedule: Q01DX009 (ip), vehicle: Klucel (hydroxypropylcellulose) (HPC) 100 % of control | dose: 400.0 mg/kg/injection, schedule: Q01DX009 (ip), vehicle: Klucel (hydroxypropylcellulose) (HPC) 95 % of control

CC(C)SSC(C)C
inactive: [16] 105 % of control | [17] 108 % of control | [18] 89 % of control

COc1ccc(CSC(=S)Nc2ccc(Cl)c(Cl)c2)cc1OC
inactive: dose: 37.5 mg/kg/injection, schedule: Q04DX003 (ip), vehicle: saline 101 % of control | dose: 75.0 mg/kg/injection, schedule: Q04DX003 (ip), vehicle: saline 93 % of control | dose: 150.0 mg/kg/injection, schedule: Q04DX003 (ip), vehicle: saline 101 % of control

Clc1ccc(C(c2ccc(Cl)cc2)N2CCNCC2)cc1
inactive: [1] 98 % of control

C=C(C)[P+](C)(c1ccccc1)c1ccccc1
inactive: dose: 2.5 mg/kg/injection, schedule: Q01DX001 (ip), vehicle: saline 102 % of control | dose: 5.0 mg/kg/injection, schedule: Q01DX001 (ip), vehicle: saline 105 % of control

S=C(S)Nc1ccc(Cc2ccc(NC(=S)S)cc2)cc1
inactive: [11] 95 % of control | [12] 91 % of control | [13] 98 % of control

O=C(C=C(C(F)(F)F)C(F)(F)F)c1ccc(Cl)c([N+](=O)[O-])c1
inactive: dose: 0.5 mg/kg/injection, schedule: Q01DX009 (ip), vehicle: other 98 % of control | dose: 1.0 mg/kg/injection, schedule: Q01DX009 (ip), vehicle: other 95 % of control | dose: 2.5 mg/kg/injection, schedule: Q01DX009 (ip), vehicle: other 101 % of control | dose: 2.5 mg/kg/injection, schedule: Q01DX009 (ip), vehicle: saline with Tween-80 96 % of control | dose: 6.0 mg/kg/injection, schedule: Q01DX001 (ip), vehicle: saline with Tween-80 103 % of control | dose: 12.0 mg/kg/injection, schedule: Q01DX001 (ip), vehicle: saline with Tween-80 98 % of control | dose: 25.0 mg/kg/injection, schedule: Q01DX001 (ip), vehicle: saline with Tween-80 95 % of control and 100 % of control

CCCCCCCCCCCCOS(=O)(=O)O
inactive: [16] 98 % of control | [17] 95 % of control | [18] 98 % of control

Nc1cc(=O)[nH]c(C(F)(F)F)n1
inactive: dose: 29.0 mg/kg/injection, schedule: Q01DX Z (ip), vehicle: saline 119 % of control | dose: 45.0 mg/kg/injection, schedule: Q01DX Z (ip), vehicle: saline 98 % of control | dose: 67.0 mg/kg/injection, schedule: Q01DX Z (ip), vehicle: saline 106 % of control | dose: 100.0 mg/kg/injection, schedule: Q01DX Z (ip), vehicle: saline 104 % of control

Cc1cc(NC(=O)NCc2ccc(N)cc2)ccc1S(=O)(=O)F
inactive: [5] 95 % of control | [6] 100 % of control | [7] 114 % of control | [8] 96 % of control | [9] 93 % of control | [10] 100 % of control

O=C(CCN1CCCCCCC1)c1cccc([N+](=O)[O-])c1
inactive: [14] 97 % of control | [2] 101 % of control | [15] 104 % of control | [5] 91 % of control | [6] 97 % of control and 105 % of control

Reference: PubChem BioAssay AID248 (DTP/NCI, 2004)
